Laboratory results reported in patent publication US20250186405A1, “Compound For Use In Treating Narcolepsy” (Alkermes, Inc., priority 2023, published 2025).

Test system: healthy adult subjects
Assay: Part 1 SAD: treatment-emergent adverse events after single oral dose (N = 6 per dose)
Experimental: Part 1 of the study is a SAD evaluation in healthy subjects consisting of 6 cohorts: Cohorts 1-6 received powder-in-capsule or matching placebo. There were approximately 8 subjects per cohort. Dose levels were as follows:
No food was given for at least 4 hours after dose administration. Water was allowed ad libitum except for the time 1 hour before and 1 hour after study drug administration. Safety assessments including AEs, safety ECGs, vital signs, and clinical laboratory tests were conducted, and plasma PK samples were collected.
Adverse events (AEs) and serious adverse events (SAEs) were monitored continuously until the completion of the study.

CS(=O)(=O)N[C@H]1CCCN2C(=O)COc3ccccc3C3CCC(CC3)OCC12 (stereo partly drawn) [Compound A, N-[(4S,4aR,7α,10α)-1,2,3,4,4a,5,7,8,9,10,16,17-dodecahydro-17-oxo-7,10-ethanopyrido[1,2-d][1,7,4]benzodioxaazacyclotridecin-4-yl]methanesulfonamide]
4 n: Any TEAE (1 mg) | TEAE by Highest Relationship: Not Related (1 mg) | Any TEAE (15 mg) | TEAE by Highest Relationship: Related (15 mg) | TEAE by Highest Severity: Mild (15 mg) | Any TEAE (25 mg) | TEAE Dizziness (25 mg) | TEAE by Highest Relationship: Related (25 mg) | TEAE by Highest Severity: Mild (25 mg) | TEAE Pollakiuria (Total (N = 36)) | TEAE by Highest Severity: Moderate (Total (N = 36))
8 n: TEAE Dizziness (Total (N = 36))
5 n: TEAE by Highest Relationship: Not Related (Total (N = 36))
15 n: Any TEAE (Total (N = 36))
3 n: TEAE by Highest Severity: Moderate (1 mg)
10 n: TEAE by Highest Relationship: Related (Total (N = 36))
11 n: TEAE by Highest Severity: Mild (Total (N = 36))
2 n: TEAE Dizziness (15 mg) | Any TEAE (50 mg) | TEAE Dizziness (50 mg) | TEAE Nausea (50 mg) | TEAE Pollakiuria (50 mg) | TEAE by Highest Relationship: Related (50 mg) | TEAE Nausea (Total (N = 36)) | TEAE Vision blurred (Total (N = 36))
0 n: AE Leading to Study Drug Discontinuation (1 mg) | Any SAEs (1 mg) | Death (1 mg) | TEAE Anxiety (1 mg) | TEAE Aspartate aminotransferase increased (1 mg) | TEAE Back pain (1 mg) | TEAE Blood pressure increased (1 mg) | TEAE Dizziness (1 mg) | TEAE Fatigue (1 mg) | TEAE Headache (1 mg) | TEAE Hot flush (1 mg) | TEAE Hypervigilance (1 mg) | TEAE Insomnia (1 mg) | TEAE Metamorphopsia (1 mg) | TEAE Nausea (1 mg) | TEAE Oropharyngeal pain (1 mg) | TEAE Pollakiuria (1 mg) | TEAE Upper respiratory tract infection (1 mg) | TEAE Urinary incontinence (1 mg) | TEAE Vision blurred (1 mg) | TEAE by Highest Relationship: Related (1 mg) | TEAE by Highest Severity: Severe (1 mg) | AE Leading to Study Drug Discontinuation (3 mg) | Any SAEs (3 mg) | Any TEAE (3 mg) | Death (3 mg) | TEAE Anxiety (3 mg) | TEAE Aspartate aminotransferase increased (3 mg) | TEAE Back pain (3 mg) | TEAE Blood pressure increased (3 mg) | TEAE Dermatitis contact (3 mg) | TEAE Dizziness (3 mg) | TEAE Fatigue (3 mg) | TEAE Headache (3 mg) | TEAE Hot flush (3 mg) | TEAE Hypervigilance (3 mg) | TEAE Insomnia (3 mg) | TEAE Metamorphopsia (3 mg) | TEAE Nausea (3 mg) | TEAE Oropharyngeal pain (3 mg) | TEAE Pharyngitis (3 mg) | TEAE Pollakiuria (3 mg) | TEAE Skin hyperpigmentation (3 mg) | TEAE Upper respiratory tract infection (3 mg) | TEAE Urinary incontinence (3 mg) | TEAE Vision blurred (3 mg) | TEAE by Highest Relationship: Not Related (3 mg) | TEAE by Highest Relationship: Related (3 mg) | TEAE by Highest Severity: Mild (3 mg) | TEAE by Highest Severity: Moderate (3 mg) | TEAE by Highest Severity: Severe (3 mg) | AE Leading to Study Drug Discontinuation (8 mg) | Any SAEs (8 mg) | Death (8 mg) | TEAE Anxiety (8 mg) | TEAE Aspartate aminotransferase increased (8 mg) | TEAE Back pain (8 mg) | TEAE Blood pressure increased (8 mg) | TEAE Dermatitis contact (8 mg) | TEAE Dizziness (8 mg) | TEAE Fatigue (8 mg) | TEAE Headache (8 mg) | TEAE Hot flush (8 mg) | TEAE Hypervigilance (8 mg) | TEAE Insomnia (8 mg) | TEAE Metamorphopsia (8 mg) | TEAE Nausea (8 mg) | TEAE Oropharyngeal pain (8 mg) | TEAE Pharyngitis (8 mg) | TEAE Pollakiuria (8 mg) | TEAE Skin hyperpigmentation (8 mg) | TEAE Urinary incontinence (8 mg) | TEAE Vision blurred (8 mg) | TEAE by Highest Relationship: Related (8 mg) | TEAE by Highest Severity: Moderate (8 mg) | TEAE by Highest Severity: Severe (8 mg) | AE Leading to Study Drug Discontinuation (15 mg) | Any SAEs (15 mg) | Death (15 mg) | TEAE Aspartate aminotransferase increased (15 mg) | TEAE Back pain (15 mg) | TEAE Blood pressure increased (15 mg) | TEAE Dermatitis contact (15 mg) | TEAE Fatigue (15 mg) | TEAE Headache (15 mg) | TEAE Nausea (15 mg) | TEAE Oropharyngeal pain (15 mg) | TEAE Pharyngitis (15 mg) | TEAE Skin hyperpigmentation (15 mg) | TEAE Upper respiratory tract infection (15 mg) | TEAE Urinary incontinence (15 mg) | TEAE by Highest Relationship: Not Related (15 mg) | TEAE by Highest Severity: Moderate (15 mg) | TEAE by Highest Severity: Severe (15 mg) | AE Leading to Study Drug Discontinuation (25 mg) | Any SAEs (25 mg) | Death (25 mg) | TEAE Anxiety (25 mg) | TEAE Aspartate aminotransferase increased (25 mg) | TEAE Back pain (25 mg) | TEAE Blood pressure increased (25 mg) | TEAE Dermatitis contact (25 mg) | TEAE Headache (25 mg) | TEAE Hot flush (25 mg) | TEAE Hypervigilance (25 mg) | TEAE Insomnia (25 mg) | TEAE Metamorphopsia (25 mg) | TEAE Nausea (25 mg) | TEAE Pharyngitis (25 mg) | TEAE Skin hyperpigmentation (25 mg) | TEAE Upper respiratory tract infection (25 mg) | TEAE Urinary incontinence (25 mg) | TEAE Vision blurred (25 mg) | TEAE by Highest Relationship: Not Related (25 mg) | TEAE by Highest Severity: Moderate (25 mg) | TEAE by Highest Severity: Severe (25 mg) | AE Leading to Study Drug Discontinuation (50 mg) | Any SAEs (50 mg) | Death (50 mg) | TEAE Anxiety (50 mg) | TEAE Back pain (50 mg) | TEAE Dermatitis contact (50 mg) | TEAE Fatigue (50 mg) | TEAE Hot flush (50 mg) | TEAE Hypervigilance (50 mg) | TEAE Insomnia (50 mg) | TEAE Metamorphopsia (50 mg) | TEAE Oropharyngeal pain (50 mg) | TEAE Pharyngitis (50 mg) | TEAE Skin hyperpigmentation (50 mg) | TEAE Upper respiratory tract infection (50 mg) | TEAE by Highest Relationship: Not Related (50 mg) | TEAE by Highest Severity: Severe (50 mg) | AE Leading to Study Drug Discontinuation (Total (N = 36)) | Any SAEs (Total (N = 36)) | Death (Total (N = 36)) | TEAE Back pain (Total (N = 36)) | TEAE by Highest Severity: Severe (Total (N = 36))
well tolerated: Tolerability (single doses 1 to 50 mg)
1 n: TEAE Dermatitis contact (1 mg) | TEAE Pharyngitis (1 mg) | TEAE Skin hyperpigmentation (1 mg) | TEAE by Highest Severity: Mild (1 mg) | Any TEAE (8 mg) | TEAE Upper respiratory tract infection (8 mg) | TEAE by Highest Relationship: Not Related (8 mg) | TEAE by Highest Severity: Mild (8 mg) | TEAE Anxiety (15 mg) | TEAE Hot flush (15 mg) | TEAE Hypervigilance (15 mg) | TEAE Insomnia (15 mg) | TEAE Metamorphopsia (15 mg) | TEAE Pollakiuria (15 mg) | TEAE Vision blurred (15 mg) | TEAE Fatigue (25 mg) | TEAE Oropharyngeal pain (25 mg) | TEAE Pollakiuria (25 mg) | TEAE Aspartate aminotransferase increased (50 mg) | TEAE Blood pressure increased (50 mg) | TEAE Headache (50 mg) | TEAE Urinary incontinence (50 mg) | TEAE Vision blurred (50 mg) | TEAE by Highest Severity: Mild (50 mg) | TEAE by Highest Severity: Moderate (50 mg) | TEAE Anxiety (Total (N = 36)) | TEAE Aspartate aminotransferase increased (Total (N = 36)) | TEAE Blood pressure increased (Total (N = 36)) | TEAE Dermatitis contact (Total (N = 36)) | TEAE Fatigue (Total (N = 36)) | TEAE Headache (Total (N = 36)) | TEAE Hot flush (Total (N = 36)) | TEAE Hypervigilance (Total (N = 36)) | TEAE Insomnia (Total (N = 36)) | TEAE Metamorphopsia (Total (N = 36)) | TEAE Oropharyngeal pain (Total (N = 36)) | TEAE Pharyngitis (Total (N = 36)) | TEAE Skin hyperpigmentation (Total (N = 36)) | TEAE Upper respiratory tract infection (Total (N = 36)) | TEAE Urinary incontinence (Total (N = 36))
